Like-named read-outs stand apart in the source and are kept apart here.
What was measured:
[1] = biological target: Des1 (Homo sapiens (Human), UniProt O15121); assay: Jurkat T cell measurement of conversion of dihydroceramide to ceramide; format: cell-based; conditions: Jurkat clone E6-1 cells; for inhibition at 0.5 µM: 0.5 μM compound, read-out: Des1 % Inhib (0.5 μM)
Method: Jurkat T Cell Measurement of Conversion of Dihydroceramide to Ceramide
Jurkat clone E6-1 cells were grown and then seeded at 10^6 cells/mL in a 96-well plate (400 μL in each well. The cells were administered 100 μL of cell culture media containing 50-μM NBD-C6-dihydroceramide (Des1 substrate), affording a final concentration of substrate of 10 μM. The cells were incubated with substrate at 4° C. for 30 minutes. Following the incubation at 4° C., the cell suspension was centrifuged at 1200 rpm for 3 minutes, and the cell pellet is resuspended in 400 μL of fresh media containing various concentrations of either fenretinide (known Des1 inhibitor control compound) or test article. The final concentrations of control compound and test compounds were tested in a range from 0-10 μM. The cells and compounds were incubated at 37° C. for 3 hours. Following the 3-hour incubation, the plate was centrifuged at 2500 g for 3 minutes at 4° C., followed by collection and transfer of 200 μL of the supernatant to a new 96-well plate with 300 μL of methanol an containing appropriate internal standards for liquid chromatography/tandem mass spectroscopy (LC/MS/MS) analysis (internal standard: 500 nM labetalol and 100 nM alprazolam). The samples were vortexed for 2 minutes followed by centrifugation at 3,220 g for 20 minutes. Following centrifugation, 200 μL of the supernatant was transferred to a new 96-well plate for LC-MS/MS analysis to determine the amount of NBD-C6-ceramide (Des1 product) produced. The assay was typically performed in duplicate. A reduction of at least 30% compared to vehicle control (0 μM test article) is indicative of an active compound, and a reduction of 75% compared to vehicle control is preferred.

[2] = tested on: insulin-stimulated Akt phosphorylation in C2C12 myotubes; assay: C2C12 myotube assay of insulin-stimulated phosphorylation of Akt; format: cell-based; conditions: Mus musculus, in the presence of palmitate, read-out: half-maximal effective concentration (EC50) for increasing insulin-stimulated Akt phosphorylation
Method: C2C12 Myotube Assay of Insulin-Stimulated Phosphorylation of Akt:
C2C12 myotubes are treated with 0.75 mM BSA-conjugated palmitate for 16 hours in the presence or absence of 7 non-zero concentrations of fenretinide (Des1 inhibitor control compound) or various test articles, followed by a 10-minute stimulation with insulin (100 nM). Cells are subsequently harvested and boiled in reducing SDS sample buffer and subjected to SDS-PAGE followed by detection of phosphorylated Akt, total Akt, and a suitable loading control (e.g. actin or GAPDH) by western blot using fluorescently-conjugated secondary antibodies. Band intensities are quantitated by an Odyssey imaging system (Li-COR), but could also be performed using HRP-conjugated secondary antibodies/enhanced chemiluminescence or by colorimetric readout.
Moreover, while currently contemplated for SDS-PAGE/immunoblot format, this assay could be adapted to ELISA or in-cell western (immunocytochemistry) formats for higher throughput testing of compounds. An increase of 30% compared to vehicle control (0 μM test article) is indicative of an active compound, and an increase of 50% compared to control is preferred. […] Des1 inhibitors disclosed herein are expected to be effective in this assay.

[3] = tested on: CFTR-KO mice; conditions: cited from earlier work
[4] = NBD-C6-dihydroceramide substrate, read-out: Des1 IC50

Sequence of Des1 (O15121 whole entry): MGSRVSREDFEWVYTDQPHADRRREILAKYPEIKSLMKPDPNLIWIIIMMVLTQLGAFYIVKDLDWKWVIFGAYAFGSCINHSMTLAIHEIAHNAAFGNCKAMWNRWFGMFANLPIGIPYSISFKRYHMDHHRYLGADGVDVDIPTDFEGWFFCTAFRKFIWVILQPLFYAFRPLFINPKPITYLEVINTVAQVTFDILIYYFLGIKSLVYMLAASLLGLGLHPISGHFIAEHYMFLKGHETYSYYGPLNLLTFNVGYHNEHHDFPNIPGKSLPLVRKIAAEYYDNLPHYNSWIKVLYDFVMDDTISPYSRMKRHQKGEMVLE

inhibition at 0.5 µM [1]	IC50 [1, 4]	SMILES	IC50 ([1]; read-out: half-maximal inhibitory concentration (IC50))	EC50 [2]	susceptibility to infection with Pseudomonas aeruginosa ([3]; CFTR-KO mice)	lung AA/DHA ratio ([3]; lungs of CFTR-KO mice)
91.3%	250 nM	O=C(Nc1ccc(O)cn1)C1CCCN(c2ccc(F)cc2)C1 (centres unmarked) [Example 48, 1-(4-fluorophenyl)-N-(5-hydroxypyridin-2-yl)piperidine-3-carboxamide]				
96.8%	13 nM	O=C(CC1CCN(c2ccc(F)cc2)CC1)Nc1ccc(O)cn1 [Example 49, 2-[1-(4-fluorophenyl)piperidin-4-yl]-N-(5-hydroxypyridin-2-yl)acetamide]				
92.3%	140 nM	O=C(CN1CCN(c2ccc(F)cc2)CC1)Nc1ccc(O)cn1 [Example 50, 2-[4-(4-fluorophenyl)piperazin-1-yl]-N-(5-hydroxypyridin-2-yl)acetamide]				
97.3%	5 nM	O=C(CC1CCN(c2ccc(Cl)cc2)CC1)Nc1ccc(O)cn1 [Example 51, 2-[1-(4-chlorophenyl)piperidin-4-yl]-N-(5-hydroxypyridin-2-yl)acetamide]				
94.1%	66 nM	O=C(CN1CCN(c2ccc(Cl)cc2)CC1)Nc1ccc(O)cn1 [Example 52, 2-[4-(4-chlorophenyl)piperazin-1-yl]-N-(5-hydroxypyridin-2-yl)acetamide]				
	2 nM	O=C(Nc1ccc(O)cn1)C1CCN(c2ccc(C(F)(F)F)cc2)CC1 [Example 53, N-(5-hydroxypyridin-2-yl)-1-[4-(trifluoromethyl)phenyl]piperidine-4-carboxamide]				
96.6%	11 nM	O=C(Nc1ccc(O)cn1)C1CCN(c2ccc(F)cc2)CC1 [Example 54, 1-(4-fluorophenyl)-N-(5-hydroxypyridin-2-yl)piperidine-4-carboxamide]				
		CC1=C(/C=C/C(C)=C/C=C/C(C)=C/C(=O)Nc2ccc(O)cc2)C(C)(C)CCC1 [fenretinide]	100 to 250 nM	600 nM	reduce susceptibility to infection with Pseudomonas aeruginosa	normalize this ratio
